Reference: patent US20260078099A1, “COMPOUND, PREPARATION METHOD THEREOF, AND LIPID NANOPARTICLE AND PHARMACEUTICAL COMPOSITION” (priority 2023, published 2026)

Key:
[1] = tested on: mice; assay: Bioluminescent study, intramuscular injection of F-luc mRNA LNPs; format: in vivo; details: F-luc luminescence flux normalized to MC3; 0.25 mg/kg intramuscular, mice n=3, 6-hour time point
Experimental: The efficacy of nanoparticle compositions was evaluated using bioluminescent studies. A dose of 0.25 mg/kg (mpk) of the formulation was administered to mice (n=3) via intramuscular injection, and bioluminescence was measured at a 6-hour time point. The test lipid nanoparticles from the MC3 formulation were evaluated, and in some cases, controls (e.g., PBS controls) were assessed for comparison.
The characteristics of the test lipid nanoparticles measured from the test groups, including F-luc luminescence intensity, are listed in the table below.

[2] = LNP size and PDI by dynamic light scattering; format: physicochemical; details: for PDI / Size (nm): mRNA LNP, cationic lipid/DSPC/cholesterol/PEG-lipid 50:10:38.5:1.5
Experimental: (§1) In summary, the cationic lipid described herein, DSPC, cholesterol, and PEG-lipid were dissolved in ethanol at a molar ratio of 50:10:38.5:1.5 and diluted in 10 mM to 50 mM citrate buffer at pH 4 with mRNA. Using a microfluidic device, the lipid ethanol solution was mixed with mRNA aqueous solution at a volume ratio of 1:3 and a total flow rate ranging from 6-30 mL/min, preparing LNPs with a total lipid to mRNA weight ratio of approximately 10:1 to 30:1. Ethanol was removed by dialysis and replaced with PBS. Finally, the lipid nanoparticles were filtered through a 0.22 μm sterile filter.
(§2) The size of lipid nanoparticles was measured by dynamic light scattering using a Malvern Zetasizer Nano ZS (Malvern, UK) with a 90° scattering detection mode. The encapsulation efficiency of lipid nanoparticles was determined using the Quant-it Ribogreen RNA Quantitation Kit (Thermo Fisher Scientific, UK) according to the manufacturer's instructions. The apparent pKa of LNP formulations correlates with the delivery efficiency of nucleic acids by LNPs in vivo. The apparent pKa ranges from approximately 5 to 7. An analysis based on fluorescence from 2-(p-tolylamino)-6-naphthalenesulfonic acid (TNS) was used to determine the apparent pKa of formulations. As described above, LNP formulations containing cationic lipid/DSPC/cholesterol/DMG-PEG (50/10/38.5/1.5 mol %) in PBS were prepared. A 300 μM stock solution of TNS in distilled water was prepared. LNP formulations were diluted to 0.1 mg/mL total lipid in 3 mL of buffer solution containing 50 mM sodium citrate, 50 mM sodium phosphate, 50 mM sodium borate, and 30 mM sodium chloride (pH ranged from 3 to 9). […] S-shaped curve best-fit analysis was applied to the fluorescence data, and the pKa value was measured as the pH value producing half-maximal fluorescence intensity.

[3] = LNP zeta potential; format: physicochemical; details: mRNA LNP
Description: Nanoparticle compositions can be characterized by various methods. For example, the morphology and size distribution of nanoparticle compositions can be examined using microscopy (e.g., transmission electron microscopy or scanning electron microscopy). The zeta potential can be measured using dynamic light scattering or potentiometric titration. Dynamic light scattering can also be used to determine particle size. Instruments such as the Zetasizer Nano ZS (Malvern Instruments Ltd., Malvern, Worcestershire, UK) can also be used to measure multiple characteristics of nanoparticle compositions, such as particle size, polydispersity index, and zeta potential.
[…]: The zeta potential of the nanoparticle composition can indicate the electrophoretic potential of the composition. For example, zeta potential may describe the surface charge of the nanoparticle composition. Nanoparticle compositions with relatively low positive or negative charges are generally desirable, as materials with higher charges may interact undesirably with cells, tissues, and other components in the body. In some embodiments, the zeta potential of the nanoparticle composition may be about −10 mV to about +20 mV, about −10 mV to about +15 mV, about −10 mV to about +10 mV, about −10 mV to about +5 mV, about −10 mV to about 0 mV, about −10 mV to about −5 mV, about −5 mV to about +20 mV, about −5 mV to about +15 mV, about −5 mV to about +10 mV, about −5 mV to about +5 mV, about −5 mV to about 0 mV, about 0 mV to about +20 mV, about 0 mV to about +15 mV, about 0 mV to about +10 mV, about 0 mV to about +5 mV, about +5 mV to about +20 mV, about +5 mV to about +15 mV, or about +5 mV to about +10 mV.

[4] = LNP encapsulation efficiency (Quant-it Ribogreen); format: physicochemical; details: mRNA LNP, cationic lipid/DSPC/cholesterol/PEG-lipid 50:10:38.5:1.5
Description: Encapsulation Efficiency: The encapsulation efficiency of a therapeutic and/or prophylactic agent refers to the amount of the therapeutic and/or prophylactic agent encapsulated within or otherwise associated with the nanoparticle composition relative to the initial amount provided during preparation. Encapsulation efficiency is desirably high (such as close to 100%). Encapsulation efficiency can be measured, for example, by comparing the amount of therapeutic and/or prophylactic agent in a solution containing the nanoparticle composition before and after disruption of the nanoparticle composition using one or more organic solvents or detergents. Fluorescence can be used to measure the amount of free therapeutic and/or prophylactic agent (e.g., RNA) in solution. For the nanoparticle compositions described herein, the encapsulation efficiency of the therapeutic and/or prophylactic agent may be at least 50%, such as 50%, 55%, 60%, 65%, 70%, 75%, 80%, 85%, 90%, 91%, 92%, 93%, 94%, 95%, 96%, 97%, 98%, 99%, or 100%. In some embodiments, the encapsulation efficiency may be at least 80%. In certain embodiments, the encapsulation efficiency may be at least 90%.
as §1, §2

| Compound | Relative Total flux [1] | PDI [2] | Size (nm) [2] | particle sizes by dynamic light scattering (FIG. 22) ([2]; mRNA-loaded LNPs) | Zeta potential (mV) [3] | Encapsulation efficiency (%) [4] |
| --- | --- | --- | --- | --- | --- | --- |
| CCCCCCCCCCCOC(=O)CCCCCN(CCO)CCCCCCCC(=O)OC(CCCCCCCC)CCCCCCCC [SM-102, reference compound] | A (A: ≥2) | 0.058 | 89.08 nm | approximately 100 nm | −1.23 mV | 96.25% |
| CCCCCCCCNC(=O)C(CCCCCCCC)N(CCCN(CC)CC)C(=O)CCCCCCC(=O)OC(CCCCCCCC)CCCCCCCC (stereo not drawn) [Compound A33] | A (A: ≥2) | 0.10 | 79.84 nm |  | 0.51 mV | 94.69% |
| CCCCCCCCC(C(=O)NCCCCCCCCCC(=O)OCCCCCC)N(CCCN(C)C)C(=O)CCCCCCCCCC(=O)OCCCCCC (stereo not drawn) [Compound A16] | C (C: ≥0.1 and <1) | 0.183 | 78.42 nm |  | 0.78 mV | 41.55% |
| CCCCCCCCC(C(=O)NCCCCCCCCCC(=O)OCC12CC3CC(CC(C3)C1)C2)N(CCCN(C)C)C(=O)CCCCCCCCCC(=O)OC(CCCCCC)CCCCCC (stereo not drawn) [Compound A18] | D (D: <0.1.) | 0.136 | 78.14 nm |  | −15.20 mV | 87.17% |
| CCCCCCCC(C(=O)NCCCCCCCCCC(=O)OC(CCCCCC)CCCCCC)N(CCOC(=O)CCN(C)C)C(=O)CCCCCCCCCC(=O)OC(CCCCCC)CCCCCC (stereo not drawn) [Compound B24] | A (A: ≥2) | 0.245 | 68.83 nm |  | −9.96 mV | 93.57% |
| CCCCCCCC(C(=O)NCCCCCCCCCC(=O)OC(CCCCCC)CCCCCC)N(CCCN(CCO)C1CCCC1)C(=O)CCCCCCCCCC(=O)OC(CCCCCC)CCCCCC (stereo not drawn) [Compound B12] | A (A: ≥2) | 0.183 | 65.03 nm |  | −9.02 mV | 93.45% |
| CCCCCCCCNC(=O)C(CCCCCCCC)N(CCN(C)CCO)C(=O)CCCCCCC(=O)OC(CCCCCCCC)CCCCCCCC (stereo not drawn) [Compound B31] | A (A: ≥2) | 0.10 | 61.00 nm |  | 4.83 mV | 95.03% |
| CCCCCCCC(C(=O)NCCCCCCCCCC(=O)OC(CCCCCC)CCCCCC)N(CCCN(CCO)CCO)C(=O)CCCCCCCCCC(=O)OCC12CC3CC(CC(C3)C1)C2 (stereo not drawn) [Compound B4] | A (A: ≥2) | 0.159 | 72.08 nm |  | 10.58 mV | 96.14% |
| CCCCCCCCC(CCCCCC)COC(=O)CCCCCCCCCNC(=O)C(CCCCCCCC)N(CCCN1CCCC1)C(=O)CCCCCCCCCC(=O)OCC(CCCCCC)CCCCCCCC (stereo not drawn) [Compound A4] | D (D: <0.1.) | 0.202 | 72.85 nm |  | 5.65 mV | 97.34% |
| CCCCCCCCCCCNC(=O)C(CCCCCCCC)N(CCN(C)CCN(C(=O)CCCCCCCCCC(=O)OC(CCCCCC)CCCCCC)C(CCCCCCCC)C(=O)NCCCCCCCCCC)C(=O)CCCCCCCCCC(=O)OC(CCCCCC)CCCCCC (stereo not drawn) [Compound D4] | C (C: ≥0.1 and <1) | 0.163 | 113.2 nm |  | −5.91 mV | 43.24% |
| CCCCCCCC(C(=O)NCCCCCCCCCC(=O)OC(CCCCCC)CCCCCC)N(CCN1CCN(CCO)CC1)C(=O)CCCCCCCCCC(=O)OC(CCCCCC)CCCCCC (stereo not drawn) [Compound B16] | A (A: ≥2) | 0.593 | 57.19 nm |  | 5.42 mV | 94.62% |
| CCCCCCCCC(C(=O)NCCCCCCCCCC(=O)OCCCCCC)N(CCCN(CCO)CCO)C(=O)CCCCCCCCCC(=O)OC(CCCCCC)CCCCCC (stereo not drawn) [Compound B3] | A (A: ≥2) | 0.306 | 85.75 nm |  | −6.91 mV | 79.83% |
| CCCCCC/C=C\CCCCCCCC(C(=O)NCCCCCCCC/C=C\CCCCCCCC)N(CCCN(C)C)C(=O)CCCCCCC/C=C\CCCCCCCC (stereo not drawn) [Compound C8] | A (A: ≥2) | 0.24 | 78.44 nm |  | −0.77 mV | 82.17% |
| CCCCCCCCC(CCCCCC)COC(=O)CCCCCNC(=O)C(CCCCC)N(CCCCN1CCCC1)C(=O)CCCCCC(=O)OCC(CCCCCC)CCCCCCCC (stereo not drawn) [Compound A46] | A (A: ≥2) | 0.19 | 107.50 nm |  | −0.55 mV | 94.31% |
| CCCCCCC(CCCCCC)OC(=O)CCCCCCCCCNC(=O)C(CCCCCCCCCC(=O)OC(CCCCCC)CCCCCC)N(CCN1CCN(CCO)CC1)C(=O)CCN1CCN(CCO)CC1 (stereo not drawn) [Compound E10] | C (C: ≥0.1 and <1) | 0.185 | 104.5 nm |  | −16.71 mV | 69.71% |
| CCCCCCC(CCCCCC)OC(=O)CCCCCCCCCNC(=O)C(CCCCCCCCCC(=O)OC(CCCCCC)CCCCCC)N(CCCN(C)C)C(=O)CCCN(C)C (stereo not drawn) [Compound E6] | C (C: ≥0.1 and <1) | 0.246 | 81.59 nm |  | −6.48 mV | 96.54% |
